# Experimental data as given in article PMC5218480 (PLoS ONE, 2017).
# Test system: MV-4-11 cells
# Test: Gene expression microarray analysis (Affymetrix PrimeView) and GSEA
# Assay type: cell-based, human
# Design: RFU PODN (11730768_x_at) / Fold change /veh PODN (11730768_x_at) / RFU LINC00158 (11744669_a_at) / Fold change /veh LINC00158 (11744669_a_at) / RFU DUSP10 (11751237_a_at) / Fold change /veh DUSP10 (11751237_a_at) / RFU ID3 (11757404_x_at) / Fold change /veh ID3 (11757404_x_at) / RFU PLEKHG5 (11737974_s_at) / Fold change /veh PLEKHG5 (11737974_s_at) / RFU LRRC4B (11730491_at) / Fold change /veh LRRC4B (11730491_at) / RFU GIMAP4 (11747438_a_at) / Fold change /veh GIMAP4 (11747438_a_at) / RFU KRT8 (11758183_x_at) / Fold change /veh KRT8 (11758183_x_at) / RFU CNN1 (11734310_a_at) / Fold change /veh CNN1 (11734310_a_at) / RFU VPS37D (11726825_at) / Fold change /veh VPS37D (11726825_at) / RFU C10orf10 (11716522_x_at) / Fold change /veh C10orf10 (11716522_x_at) / RFU KIR2DL2 /// KIR2DL4 /// KIR2DL5A /// KIR2DL5B /// KIR2DS1 /// KIR2DS2 /// KIR2DS3 /// KIR2DS4 /// KIR3DL3 /// KIR3DL3 /// KIR3DS1 (11738374_at) / Fold change /veh KIR2DL2 /// KIR2DL4 /// KIR2DL5A /// KIR2DL5B /// KIR2DS1 /// KIR2DS2 /// KIR2DS3 /// KIR2DS4 /// KIR3DL3 /// KIR3DL3 /// KIR3DS1 (11738374_at) / RFU C1QL1 (11718748_at) / Fold change /veh C1QL1 (11718748_at) / RFU TMPRSS4 (11747572_a_at) / Fold change /veh TMPRSS4 (11747572_a_at) / RFU HAMP (11756126_x_at) / Fold change /veh HAMP (11756126_x_at) / RFU RNFT2 (11725882_a_at) / Fold change /veh RNFT2 (11725882_a_at) / RFU NR4A2 (11747474_a_at) / Fold change /veh NR4A2 (11747474_a_at) / RFU ABCC12 (11746883_a_at) / Fold change /veh ABCC12 (11746883_a_at) / RFU TMEM136 (11760407_x_at) / Fold change /veh TMEM136 (11760407_x_at) / RFU CLDN22 /// WWC2 (11732394_at) / Fold change /veh CLDN22 /// WWC2 (11732394_at) / RFU HLA-DPB1 (11760878_x_at) / Fold change /veh HLA-DPB1 (11760878_x_at) / RFU SPINT1 (11716480_a_at) / Fold change /veh SPINT1 (11716480_a_at) / RFU GAP43 (11754022_s_at) / Fold change /veh GAP43 (11754022_s_at) / RFU A4GNT (11735810_at) / Fold change /veh A4GNT (11735810_at) / RFU PRB3 (11715151_x_at) / Fold change /veh PRB3 (11715151_x_at) / RFU TUBB4B (11761932_at) / Fold change /veh TUBB4B (11761932_at) / RFU CAPN14 (11732068_a_at) / Fold change /veh CAPN14 (11732068_a_at) / RFU TMCC2 (11721928_a_at) / Fold change /veh TMCC2 (11721928_a_at) / RFU IRGQ (11745062_a_at) / Fold change /veh IRGQ (11745062_a_at) / RFU FAM174B (11720279_a_at) / Fold change /veh FAM174B (11720279_a_at) / RFU TMPRSS4 (11748680_a_at) / Fold change /veh TMPRSS4 (11748680_a_at) / RFU FAM212B (11763350_a_at) / Fold change /veh FAM212B (11763350_a_at) / RFU PLEKHG5 (11743358_a_at) / Fold change /veh PLEKHG5 (11743358_a_at) / RFU ZSCAN30 (11745921_a_at) / Fold change /veh ZSCAN30 (11745921_a_at) / RFU CMKLR1 (11741424_a_at) / Fold change /veh CMKLR1 (11741424_a_at) / RFU LOC101060620 /// MAPK8IP1 (11723275_at) / Fold change /veh LOC101060620 /// MAPK8IP1 (11723275_at) / RFU SPTSSB (11747773_x_at) / Fold change /veh SPTSSB (11747773_x_at) / RFU PRSS12 (11739890_at) / Fold change /veh PRSS12 (11739890_at) / RFU BIN1 (11741810_x_at) / Fold change /veh BIN1 (11741810_x_at) / RFU WNT11 (11732464_a_at) / Fold change /veh WNT11 (11732464_a_at) / RFU C10orf10 (11716521_a_at) / Fold change /veh C10orf10 (11716521_a_at) / RFU C5orf56 (11738089_at) / Fold change /veh C5orf56 (11738089_at) / RFU CYB561 (11721691_x_at) / Fold change /veh CYB561 (11721691_x_at) / RFU ANKRD19P (11752326_a_at) / Fold change /veh ANKRD19P (11752326_a_at) / RFU OR2T12 /// OR2T33 /// OR2T8 (11738714_s_at) / Fold change /veh OR2T12 /// OR2T33 /// OR2T8 (11738714_s_at) / RFU VCAN (11748164_a_at) / Fold change /veh VCAN (11748164_a_at) / RFU JSRP1 (11732532_at) / Fold change /veh JSRP1 (11732532_at) / RFU KRTAP10-11 (11738290_x_at) / Fold change /veh KRTAP10-11 (11738290_x_at) / RFU MYO3A (11730013_a_at) / Fold change /veh MYO3A (11730013_a_at) / RFU EBF3 (11725865_a_at) / Fold change /veh EBF3 (11725865_a_at) / RFU CAMK2N1 (11719241_x_at) / Fold change /veh CAMK2N1 (11719241_x_at) / RFU C5orf56 (11738088_a_at) / Fold change /veh C5orf56 (11738088_a_at) / RFU OLFML3 (11715873_a_at) / Fold change /veh OLFML3 (11715873_a_at) / RFU LOC100653217 /// NTM (11731650_a_at) / Fold change /veh LOC100653217 /// NTM (11731650_a_at) / RFU MAPK11 (11762145_a_at) / Fold change /veh MAPK11 (11762145_a_at) / RFU FIZ1 (11724087_x_at) / Fold change /veh FIZ1 (11724087_x_at) / RFU OASL (11726364_x_at) / Fold change /veh OASL (11726364_x_at) / RFU SOX15 (11748057_x_at) / Fold change /veh SOX15 (11748057_x_at) / RFU CD79A (11719716_a_at) / Fold change /veh CD79A (11719716_a_at) / RFU HIST1H1D (11736915_at) / Fold change /veh HIST1H1D (11736915_at) / RFU CASKIN2 (11723855_a_at) / Fold change /veh CASKIN2 (11723855_a_at) / RFU LOC730098 (11760151_x_at) / Fold change /veh LOC730098 (11760151_x_at) / RFU OR4N2 (11742367_at) / Fold change /veh OR4N2 (11742367_at) / RFU PRRT2 (11749266_a_at) / Fold change /veh PRRT2 (11749266_a_at) / RFU SNX32 (11753110_a_at) / Fold change /veh SNX32 (11753110_a_at) / RFU CDHR5 (11726645_a_at) / Fold change /veh CDHR5 (11726645_a_at) / RFU RCAN1 (11760418_a_at) / Fold change /veh RCAN1 (11760418_a_at) / RFU FAM167A (11723789_a_at) / Fold change /veh FAM167A (11723789_a_at) / RFU FAM26E (11764081_at) / Fold change /veh FAM26E (11764081_at) / RFU ISYNA1 (11749810_s_at) / Fold change /veh ISYNA1 (11749810_s_at) / RFU ACY1 (11761880_at) / Fold change /veh ACY1 (11761880_at) / RFU 11764098_at / Fold change /veh 11764098_at / RFU SAMD14 (11745864_x_at) / Fold change /veh SAMD14 (11745864_x_at) / RFU NPB (11741838_a_at) / Fold change /veh NPB (11741838_a_at) / RFU TMPRSS6 (11731388_a_at) / Fold change /veh TMPRSS6 (11731388_a_at) / RFU KRTAP10-2 (11738614_at) / Fold change /veh KRTAP10-2 (11738614_at) / RFU ARHGAP8 /// PRR5-ARHGAP8 (11727945_x_at) / Fold change /veh ARHGAP8 /// PRR5-ARHGAP8 (11727945_x_at) / RFU KRTAP5-7 /// NADSYN1 (11734609_at) / Fold change /veh KRTAP5-7 /// NADSYN1 (11734609_at) / RFU RASL12 (11751679_a_at) / Fold change /veh RASL12 (11751679_a_at) / RFU CDKN2B (11736163_a_at) / Fold change /veh CDKN2B (11736163_a_at) / RFU PRF1 (11729649_at) / Fold change /veh PRF1 (11729649_at) / RFU, ZNF638 /// ZNF638-IT1 / Fold change vs veh, ZNF638 /// ZNF638-IT1 / RFU, PANK3 / Fold change vs veh, PANK3 / RFU, SH3YL1 / Fold change vs veh, SH3YL1 / RFU, ZEB2 / Fold change vs veh, ZEB2 / RFU, NRIP1 / Fold change vs veh, NRIP1 / RFU, PTTG1IP / Fold change vs veh, PTTG1IP / RFU, CAPN2 / Fold change vs veh, CAPN2 / RFU, MED14 / Fold change vs veh, MED14 / RFU, SNORA58 / Fold change vs veh, SNORA58 / RFU, C1orf63 / Fold change vs veh, C1orf63 / RFU, LRRFIP1 / Fold change vs veh, LRRFIP1 / RFU, NDUFAF7 / Fold change vs veh, NDUFAF7 / RFU, SLC12A2 / Fold change vs veh, SLC12A2 / RFU, IBTK / Fold change vs veh, IBTK / RFU, ESF1 / Fold change vs veh, ESF1 / Fold change vs veh, TMEM50B / RFU, TAOK1 / Fold change vs veh, TAOK1 / RFU, ACBD3 / Fold change vs veh, ACBD3 / RFU, TMA16 / Fold change vs veh, TMA16 / RFU, RWDD3 / Fold change vs veh, RWDD3 / RFU, BCAT1 / Fold change vs veh, BCAT1 / RFU, EDEM3 / Fold change vs veh, EDEM3 / RFU, TMEM33 / Fold change vs veh, TMEM33 / RFU, WDR75 / Fold change vs veh, WDR75 / RFU, AHCTF1 / Fold change vs veh, AHCTF1 / RFU, TFRC / Fold change vs veh, TFRC / RFU, ZDHHC17 / Fold change vs veh, ZDHHC17 / RFU, NOM1 / Fold change vs veh, NOM1 / RFU, ARL8B / Fold change vs veh, ARL8B / RFU, ZBTB11 / Fold change vs veh, ZBTB11 / RFU, TAMM41 / Fold change vs veh, TAMM41 / RFU, KIAA1704 /// LOC100996395 / Fold change vs veh, KIAA1704 /// LOC100996395 / RFU, ING1 / Fold change vs veh, ING1 / RFU, TRMT61B / Fold change vs veh, TRMT61B / RFU, FUBP3 / Fold change vs veh, FUBP3 / RFU, TP53 / Fold change vs veh, TP53 / RFU, TNKS2 / Fold change vs veh, TNKS2 / RFU, ZFP14 / Fold change vs veh, ZFP14 / RFU, ACTR2 / Fold change vs veh, ACTR2 / RFU, PPP3R1 / Fold change vs veh, PPP3R1 / RFU, PIK3R1 / Fold change vs veh, PIK3R1 / RFU, HNRNPA1 / Fold change vs veh, HNRNPA1 / RFU, RNF170 / Fold change vs veh, RNF170 / RFU, ZNF28 / Fold change vs veh, ZNF28 / RFU, RNGTT / Fold change vs veh, RNGTT / RFU, OGT / Fold change vs veh, OGT / RFU, BRD1 / Fold change vs veh, BRD1 / RFU, MARS / Fold change vs veh, MARS / RFU, ZNF655 / Fold change vs veh, ZNF655 / RFU, FAHD1 / Fold change vs veh, FAHD1 / RFU, BDP1 / Fold change vs veh, BDP1 / RFU, LRRCC1 / Fold change vs veh, LRRCC1 / RFU, ARID1A / Fold change vs veh, ARID1A / RFU, ZNF146 / Fold change vs veh, ZNF146 / RFU, ZNF330 / Fold change vs veh, ZNF330 / RFU, GPN3 / Fold change vs veh, GPN3 / RFU, C9orf123 / Fold change vs veh, C9orf123 / RFU, N4BP2L2 / Fold change vs veh, N4BP2L2 / RFU, ARFIP1 / Fold change vs veh, ARFIP1 / RFU, FAM179B / Fold change vs veh, FAM179B / RFU, BCL10 / Fold change vs veh, BCL10 / RFU, UHRF1BP1L / Fold change vs veh, UHRF1BP1L / RFU, BET1 / Fold change vs veh, BET1 / RFU, CNOT2 / Fold change vs veh, CNOT2 / RFU, ZNF268 / Fold change vs veh, ZNF268 / Fold change vs veh, ZNF507 / RFU, DGCR2 / Fold change vs veh, DGCR2 / RFU, WDSUB1 / Fold change vs veh, WDSUB1 / Fold change vs veh, HSP90B1 /// MIR3652 / RFU, ADSS / Fold change vs veh, ADSS / RFU, GK / Fold change vs veh, GK / RFU, ZNF148 / Fold change vs veh, ZNF148 / RFU, TAF9 / Fold change vs veh, TAF9 / RFU, SLC1A5 / Fold change vs veh, SLC1A5 / RFU, SLMO2 / Fold change vs veh, SLMO2 / RFU, ABCC4 / Fold change vs veh, ABCC4 / RFU, LOC101060439 /// RAP1B / Fold change vs veh, LOC101060439 /// RAP1B / RFU, RFX7 / Fold change vs veh, RFX7 / RFU, GTPBP10 / Fold change vs veh, GTPBP10 / RFU, CNEP1R1 / Fold change vs veh, CNEP1R1 / RFU, BIVM-ERCC5 /// ERCC5 / Fold change vs veh, BIVM-ERCC5 /// ERCC5 / RFU, ILF3 / Fold change vs veh, ILF3 / RFU 11762660_at / Fold change /veh 11762660_at / RFU VCAN (11757783_s_at) / Fold change /veh VCAN (11757783_s_at) / RFU DDX43 (11728927_at) / Fold change /veh DDX43 (11728927_at) / RFU KRT8 (11758188_x_at) / Fold change /veh KRT8 (11758188_x_at) / RFU NKD1 (11759106_at) / Fold change /veh NKD1 (11759106_at) / RFU SRD5A1 (11742802_a_at) / Fold change /veh SRD5A1 (11742802_a_at) / RFU TPSAB1 /// TPSB2 (11721975_s_at) / Fold change /veh TPSAB1 /// TPSB2 (11721975_s_at) / RFU GSTM3 (11746129_a_at) / Fold change /veh GSTM3 (11746129_a_at) / RFU IL23R (11737362_x_at) / Fold change /veh IL23R (11737362_x_at) / RFU TMEM51 (11727254_a_at) / Fold change /veh TMEM51 (11727254_a_at) / RFU PIWIL2 (11732686_x_at) / Fold change /veh PIWIL2 (11732686_x_at) / RFU ORM1 (11744905_x_at) / Fold change /veh ORM1 (11744905_x_at) / RFU CCDC152 (11743942_at) / Fold change /veh CCDC152 (11743942_at) / RFU ECM1 (11717891_a_at) / Fold change /veh ECM1 (11717891_a_at) / RFU IL23R (11748794_a_at) / Fold change /veh IL23R (11748794_a_at) / RFU TNFAIP8L3 (11732012_x_at) / Fold change /veh TNFAIP8L3 (11732012_x_at) / RFU MBOAT4 (11741988_at) / Fold change /veh MBOAT4 (11741988_at) / RFU 11764193_at / Fold change /veh 11764193_at / RFU TMEM53 (11763286_at) / Fold change /veh TMEM53 (11763286_at) / RFU MAGEB2 (11727129_at) / Fold change /veh MAGEB2 (11727129_at) / RFU TMEM200A (11744735_a_at) / Fold change /veh TMEM200A (11744735_a_at) / RFU CCDC152 (11751479_a_at) / Fold change /veh CCDC152 (11751479_a_at) / RFU FAM211A (11726209_a_at) / Fold change /veh FAM211A (11726209_a_at) / RFU RGS16 (11746705_a_at) / Fold change /veh RGS16 (11746705_a_at) / RFU VCAN (11755009_s_at) / Fold change /veh VCAN (11755009_s_at) / RFU RHOB (11743442_s_at) / Fold change /veh RHOB (11743442_s_at) / RFU RGS16 (11720943_a_at) / Fold change /veh RGS16 (11720943_a_at) / RFU RGS16 (11720944_at) / Fold change /veh RGS16 (11720944_at) / RFU, VPS4B / Fold change vs veh, VPS4B / RFU, CREB1 / Fold change vs veh, CREB1 / RFU, DNAJC13 / Fold change vs veh, DNAJC13 / RFU, GNAQ / Fold change vs veh, GNAQ / RFU, CDK5R1 / Fold change vs veh, CDK5R1 / RFU, ZRANB3 / Fold change vs veh, ZRANB3 / RFU, CUL4A / Fold change vs veh, CUL4A / RFU, CCNY / Fold change vs veh, CCNY / RFU, UFL1 / Fold change vs veh, UFL1 / RFU, COG3 / Fold change vs veh, COG3 / RFU, DIAPH2 / Fold change vs veh, DIAPH2 / RFU, SKA2 / Fold change vs veh, SKA2 / RFU, AFF3 / Fold change vs veh, AFF3 / RFU, LMF1 / Fold change vs veh, LMF1 / RFU, IPO11 / Fold change vs veh, IPO11 / RFU, DFFB / Fold change vs veh, DFFB / RFU, FOXP1 / Fold change vs veh, FOXP1 / RFU, CARD8 / Fold change vs veh, CARD8 / RFU, STRN3 / Fold change vs veh, STRN3 / RFU, ADK / Fold change vs veh, ADK / RFU, RASSF2 / Fold change vs veh, RASSF2 / RFU, WIPF1 / Fold change vs veh, WIPF1 / RFU, LARP1B / Fold change vs veh, LARP1B / RFU, RASA1 / Fold change vs veh, RASA1 / RFU, RB1 / Fold change vs veh, RB1 / RFU, PPFIA1 / Fold change vs veh, PPFIA1 / RFU, MAT2A / Fold change vs veh, MAT2A / RFU, CCT5 / Fold change vs veh, CCT5 / RFU, WDR92 / Fold change vs veh, WDR92 / RFU, CUX1 / Fold change vs veh, CUX1 / RFU, TTC7A / Fold change vs veh, TTC7A / RFU, TMEM135 / Fold change vs veh, TMEM135 / RFU, DEPTOR / Fold change vs veh, DEPTOR / RFU, CPM / Fold change vs veh, CPM / RFU, DNAJB6 / Fold change vs veh, DNAJB6 / RFU, CACNA2D3 / Fold change vs veh, CACNA2D3 / RFU, DTX4 / Fold change vs veh, DTX4 / RFU, TFCP2 / Fold change vs veh, TFCP2 / RFU, GMCL1 /// GMCL1P1 / Fold change vs veh, GMCL1 /// GMCL1P1 / RFU, AEBP2 / Fold change vs veh, AEBP2 / RFU, SNHG1 /// SNORD22 /// SNORD25 /// SNORD26 /// SNORD27 /// SNORD28 /// SNORD29 /// SNORD31 / Fold change vs veh, SNHG1 /// SNORD22 /// SNORD25 /// SNORD26 /// SNORD27 /// SNORD28 /// SNORD29 /// SNORD31 / Fold change (Aza/veh), C12orf56 (ProbeSet 11735607_a_at) / Fold change (ACY-1035/veh), C12orf56 (ProbeSet 11735607_a_at) / Fold change (Aza/veh), FGFR1OP (ProbeSet 11751329_s_at) / Fold change (ACY-1035/veh), FGFR1OP (ProbeSet 11751329_s_at) / Fold change (Aza/veh), VPS36 (ProbeSet 11739960_a_at) / Fold change (ACY-1035/veh), VPS36 (ProbeSet 11739960_a_at) / RFU SYPL1 (11715823_x_at) / Fold change /veh SYPL1 (11715823_x_at) / RFU IGFBP7 (11715501_s_at) / Fold change /veh IGFBP7 (11715501_s_at) / RFU REEP3 (11722064_at) / Fold change /veh REEP3 (11722064_at) / RFU IGLL1 (11728026_x_at) / Fold change /veh IGLL1 (11728026_x_at): dose or concentration left out as unconfirmed
# Settings: ProbeSet 11717702_a_at; LIST D
structure (smiles),measurement,value
Nc1ccc(-c2cccs2)cc1NC(=O)c1ccc2c(c1)cc(C1CC1)n2CCN1CCOCC1 [ACY-1035],"RFU, RB1",245.16 RFU
